{
  "source": "paper PMC9944328",
  "about": "(Nature Communications, 2023)",
  "tested_on": "SSTR2",
  "test": "β-arrestin recruitment with co-transfection of GRK2",
  "assay_type": "cell-based, human",
  "details": "N276(6.55)A and F294(7.35)A with GRK2 co-transfection",
  "protocol": "In addition, we measured the function of the residues located in the core region and the common ligand binding pocket.\nHuman full-length β-arrestin 1 was cloned into pcDNA3.1+ vector with the large fragment (LgBiT) of the NanoBiT system and a 15-amino acid flexible linker ([sequence]) at the N-terminus. Human full-length SSTR wild-type and mutant vectors were C-terminally fused with a 15-amino acid flexible linker and the small fragment (SmBiT). HEK293 cells were seeded into six-well microplates at a density of 1.0 × 10^6 cells/well and cultured for 24 h at 37 °C with 5% CO2. After that, cells were co-transfected with pcDNA3.1+ vectors encoding SSTR wild-type or mutants and human β-arrestin 1. After transfecting for 24 h, the transfected cells were suspended and seeded into white 96-well plates, and then cultured at 37 °C overnight. After that the medium in each well was exchanged for 90 μl of 0.01% bovine serum albumin containing 20 μl of 50 μM coelenterazine h (Carbosynth) diluted in the HBSS assay buffer and incubated for 40 min at room temperature. Then, ligands diluted in the assay buffer was added to each well and the luminescence intensity was measured using the Synergy H1 microplate reader and detected at room temperature in a time period. All data presented are means of at least three independent experiments.",
  "data": [
    {"molecule": "C[C@@H](O)[C@@H]1NC(=O)[C@H](CCCCN)NC(=O)[C@@H](Cc2c[nH]c3ccccc23)NC(=O)[C@H](Cc2ccccc2)NC(=O)[C@@H](NC(=O)[C@H](N)Cc2ccccc2)CSSC[C@@H](C(=O)N[C@H](CO)[C@@H](C)O)NC1=O", "note": "[octreotide]", "values": [
      {"measurement": "β-arrestin recruitment with GRK2", "value": "nearly abolished"}
    ]},
    {"molecule": "N#Cc1cccc(-c2ccc3ncc(-c4cc(F)cc(F)c4)c(N4CCC(N)CC4)c3c2)c1O", "note": "[paltusotine]", "values": [
      {"measurement": "β-arrestin recruitment with GRK2", "value": "influenced paltusotine induced β-arrestin recruitment"}
    ]}
  ]
}
